Read-outs that look alike come from different tables or passages of the source. Positions of bridges follow the written chain, without caps; N, C: chain ends. Non-standard residues stand in square brackets, D forms with d. Residues, ends and D or L forms follow the SMILES beside them. 1Nal = N[C@@H](Cc1cccc2ccccc12)C(=O)O; Gly(cPent) = N[C@H](C(=O)O)C1CCCC1; Abu = CC[C@H](N)C(=O)O

What all share (test): cell-based
For one assay, the target named is hNav1.7 (Homo sapiens, UniProt Q15858). In kind it is cell-based. The settings on record: IonWorks Quattro, read-out: IWQ Use Nav1.7.
The target in another assay is hNav1.5 (Homo sapiens, UniProt Q14524). The settings on record: IonWorks Quattro, read-out: IWQ Use Nav1.5. On the technique in general: Patch clamp records ionic current or voltage across a cell membrane.
For a further assay, the target named is hNav1.3 (Homo sapiens, UniProt Q9NY46). The settings on record: IonWorks Quattro, read-out: IWQ Use Nav1.3.
The mark [1] stands for this setting: use-dependent protocol, hNav1.7.
Setting [2] is: use-dependent protocol, hNav1.5.
Where [3] appears, read: use-dependent protocol, hNav1.3.

Chain of hNav1.5 (Q14524 whole entry, looked up): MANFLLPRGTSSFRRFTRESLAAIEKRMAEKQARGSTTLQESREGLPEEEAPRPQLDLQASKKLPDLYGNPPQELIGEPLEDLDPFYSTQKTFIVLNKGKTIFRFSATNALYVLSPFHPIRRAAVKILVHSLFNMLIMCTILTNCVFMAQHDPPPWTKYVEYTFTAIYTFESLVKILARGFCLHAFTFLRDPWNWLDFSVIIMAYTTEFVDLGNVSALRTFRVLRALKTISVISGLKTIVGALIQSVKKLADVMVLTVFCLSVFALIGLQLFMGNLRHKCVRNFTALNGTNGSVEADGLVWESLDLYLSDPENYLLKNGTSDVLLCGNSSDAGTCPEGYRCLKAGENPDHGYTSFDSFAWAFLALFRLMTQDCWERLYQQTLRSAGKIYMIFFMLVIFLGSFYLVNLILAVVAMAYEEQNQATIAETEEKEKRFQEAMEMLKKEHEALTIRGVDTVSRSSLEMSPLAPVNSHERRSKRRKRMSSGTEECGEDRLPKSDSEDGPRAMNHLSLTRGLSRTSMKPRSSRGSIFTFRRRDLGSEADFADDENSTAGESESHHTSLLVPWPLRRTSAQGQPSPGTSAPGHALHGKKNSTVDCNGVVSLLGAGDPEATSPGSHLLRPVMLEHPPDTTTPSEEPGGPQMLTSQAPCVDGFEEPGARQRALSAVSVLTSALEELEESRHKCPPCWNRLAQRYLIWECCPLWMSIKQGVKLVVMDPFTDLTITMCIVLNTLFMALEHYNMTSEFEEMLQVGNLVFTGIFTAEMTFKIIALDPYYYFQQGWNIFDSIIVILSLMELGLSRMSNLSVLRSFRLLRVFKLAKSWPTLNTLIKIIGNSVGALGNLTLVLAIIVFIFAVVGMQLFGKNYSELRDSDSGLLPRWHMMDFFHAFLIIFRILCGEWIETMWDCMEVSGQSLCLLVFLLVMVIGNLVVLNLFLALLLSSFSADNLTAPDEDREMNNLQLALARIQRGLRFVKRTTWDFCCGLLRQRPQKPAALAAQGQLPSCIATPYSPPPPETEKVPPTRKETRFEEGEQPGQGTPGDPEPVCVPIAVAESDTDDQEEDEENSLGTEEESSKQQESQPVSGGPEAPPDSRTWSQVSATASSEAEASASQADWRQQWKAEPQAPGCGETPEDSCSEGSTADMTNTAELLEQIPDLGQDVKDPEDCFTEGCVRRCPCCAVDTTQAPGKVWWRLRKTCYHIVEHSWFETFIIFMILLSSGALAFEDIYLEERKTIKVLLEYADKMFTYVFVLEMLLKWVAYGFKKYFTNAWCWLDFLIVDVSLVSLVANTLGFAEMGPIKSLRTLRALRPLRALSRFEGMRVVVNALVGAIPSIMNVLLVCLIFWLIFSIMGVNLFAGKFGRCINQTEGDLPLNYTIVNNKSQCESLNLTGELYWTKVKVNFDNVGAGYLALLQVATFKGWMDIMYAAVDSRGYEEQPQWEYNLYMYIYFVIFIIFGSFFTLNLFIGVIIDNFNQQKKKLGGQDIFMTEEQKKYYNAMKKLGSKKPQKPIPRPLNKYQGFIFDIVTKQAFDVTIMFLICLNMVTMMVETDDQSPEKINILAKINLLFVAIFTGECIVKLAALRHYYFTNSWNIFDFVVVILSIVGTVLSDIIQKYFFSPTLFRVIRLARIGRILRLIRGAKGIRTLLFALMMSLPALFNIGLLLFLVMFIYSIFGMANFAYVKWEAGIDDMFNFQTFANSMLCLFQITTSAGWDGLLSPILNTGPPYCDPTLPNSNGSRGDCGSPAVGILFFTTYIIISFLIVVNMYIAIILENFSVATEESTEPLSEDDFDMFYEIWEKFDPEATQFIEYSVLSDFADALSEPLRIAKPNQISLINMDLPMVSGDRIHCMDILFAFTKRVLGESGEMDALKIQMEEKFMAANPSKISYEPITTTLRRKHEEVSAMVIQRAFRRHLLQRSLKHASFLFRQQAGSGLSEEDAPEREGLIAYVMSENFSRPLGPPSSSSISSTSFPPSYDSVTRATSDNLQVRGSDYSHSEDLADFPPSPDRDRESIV
Chain of hNav1.3 (Q9NY46 whole entry, looked up): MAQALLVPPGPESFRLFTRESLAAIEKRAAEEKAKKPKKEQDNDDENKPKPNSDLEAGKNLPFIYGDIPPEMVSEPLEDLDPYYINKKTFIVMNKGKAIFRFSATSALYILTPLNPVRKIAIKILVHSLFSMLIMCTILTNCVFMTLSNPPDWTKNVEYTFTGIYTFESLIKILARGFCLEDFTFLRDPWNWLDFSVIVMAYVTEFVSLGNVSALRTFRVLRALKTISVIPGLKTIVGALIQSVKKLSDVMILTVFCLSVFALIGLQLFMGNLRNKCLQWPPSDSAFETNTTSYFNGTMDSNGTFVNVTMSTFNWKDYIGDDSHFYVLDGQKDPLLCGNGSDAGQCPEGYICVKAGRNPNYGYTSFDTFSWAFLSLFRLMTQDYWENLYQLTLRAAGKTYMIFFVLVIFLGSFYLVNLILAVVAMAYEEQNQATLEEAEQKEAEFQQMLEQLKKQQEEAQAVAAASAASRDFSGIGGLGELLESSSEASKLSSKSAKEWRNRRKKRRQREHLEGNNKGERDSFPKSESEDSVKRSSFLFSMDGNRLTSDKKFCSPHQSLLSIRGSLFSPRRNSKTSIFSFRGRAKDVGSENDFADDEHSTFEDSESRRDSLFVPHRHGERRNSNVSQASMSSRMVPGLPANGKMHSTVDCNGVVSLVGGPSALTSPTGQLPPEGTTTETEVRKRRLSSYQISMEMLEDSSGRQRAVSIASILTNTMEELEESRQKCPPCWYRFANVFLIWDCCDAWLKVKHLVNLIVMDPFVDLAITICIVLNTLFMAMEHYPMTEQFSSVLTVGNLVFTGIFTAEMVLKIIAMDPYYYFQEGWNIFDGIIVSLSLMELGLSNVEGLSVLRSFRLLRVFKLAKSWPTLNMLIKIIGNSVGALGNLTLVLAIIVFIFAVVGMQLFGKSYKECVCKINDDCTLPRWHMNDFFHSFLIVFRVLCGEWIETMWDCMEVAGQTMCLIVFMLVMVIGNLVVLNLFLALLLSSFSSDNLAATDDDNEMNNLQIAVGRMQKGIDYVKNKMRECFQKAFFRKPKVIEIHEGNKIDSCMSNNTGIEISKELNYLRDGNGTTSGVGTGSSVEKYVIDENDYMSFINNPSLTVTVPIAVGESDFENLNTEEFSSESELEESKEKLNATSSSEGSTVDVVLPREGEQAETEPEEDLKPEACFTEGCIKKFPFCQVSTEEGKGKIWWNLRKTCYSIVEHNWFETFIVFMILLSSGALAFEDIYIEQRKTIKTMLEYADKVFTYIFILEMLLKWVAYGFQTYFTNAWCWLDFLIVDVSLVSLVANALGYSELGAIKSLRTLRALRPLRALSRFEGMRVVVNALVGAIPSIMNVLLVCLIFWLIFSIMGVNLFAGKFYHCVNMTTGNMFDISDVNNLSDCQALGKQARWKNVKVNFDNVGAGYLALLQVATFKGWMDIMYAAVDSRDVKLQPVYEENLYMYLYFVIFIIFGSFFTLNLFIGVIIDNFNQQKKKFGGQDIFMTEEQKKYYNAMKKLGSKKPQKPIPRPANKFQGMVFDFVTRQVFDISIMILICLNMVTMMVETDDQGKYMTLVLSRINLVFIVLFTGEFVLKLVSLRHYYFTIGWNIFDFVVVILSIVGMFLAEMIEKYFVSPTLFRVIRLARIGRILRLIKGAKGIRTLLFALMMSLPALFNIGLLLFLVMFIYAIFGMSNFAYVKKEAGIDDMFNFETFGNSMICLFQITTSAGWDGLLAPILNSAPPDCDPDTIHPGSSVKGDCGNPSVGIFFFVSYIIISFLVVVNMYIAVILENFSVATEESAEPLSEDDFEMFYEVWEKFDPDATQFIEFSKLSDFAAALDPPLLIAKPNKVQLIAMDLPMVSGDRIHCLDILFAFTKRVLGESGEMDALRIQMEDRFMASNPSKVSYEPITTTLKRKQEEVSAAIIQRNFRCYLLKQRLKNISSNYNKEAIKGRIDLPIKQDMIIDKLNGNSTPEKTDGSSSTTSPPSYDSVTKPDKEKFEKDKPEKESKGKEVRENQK

As for `CC[C@H](C)[C@@H]1NC(=O)[C@@H]2CSSC[C@@H]3NC(=O)[C@H](C(C)C)NC(=O)[C@H](CC(C)C)NC(=O)[C@H](CC(N)=O)NC(=O)[C@@H]4CCCN4C(=O)[C@H](CCCNC(=N)N)NC(=O)[C@H](CSSC[C@H](NC(=O)[C@@H](N)CC(=O)O)C(=O)N[C@@H](CC(C)C)C(=O)NCC(=O)N[C@@H](Cc4ccccc4)C(=O)N[C@@H](CCSC)C(=O)N[C@@H](CCCNC(=N)N)C(=O)N[C@@H](CCCCN)C(=O)N2)NC(=O)[C@H](CSSC[C@@H](C(=O)N[C@@H](CCCCN)C(=O)N[C@@H](Cc2ccc(O)cc2)C(=O)N[C@H](C(=O)N[C@@H](Cc2ccccc2)C(N)=O)C(C)C)NC(=O)[C@H](Cc2c[nH]c4ccccc24)NC(=O)[C@H](CCCCN)NC(=O)[C@H](Cc2c[nH]cn2)NC(=O)[C@H]([C@@H](C)O)NC(=O)[C@H](CCCNC(=N)N)NC(=O)[C@H](CO)NC3=O)NC(=O)[C@H](CCCCN)NC(=O)[C@H](CC(=O)O)NC(=O)[C@H](Cc2cccc3ccccc23)NC(=O)[C@H](CC(=O)O)NC(=O)[C@@H]2CCCN2C1=O` [compound 163] (H-DCLGFMRKCIPD[1Nal]DKCCRPNLVCSRTHKWCKYVF-NH2; disulfide 2-17, 9-23, 16-30), the results for the IC50 on hNav1.7 (Use), on hNav1.5 (Use) and on hNav1.3 (Use) were 110 nM, 8270 nM and 90 nM, respectively.

For `CC[C@@H]1NC(=O)CNC(=O)[C@H](CC(C)C)NC(=O)[C@@H](NC(=O)[C@@H](N)CC(=O)O)CSSC[C@@H]2NC(=O)[C@@H]3CSSC[C@@H](C(=O)N[C@@H](CCCCN)C(=O)N[C@@H](Cc4ccc(O)cc4)C(=O)N[C@H](C(=O)N[C@@H](Cc4ccccc4)C(N)=O)C(C)C)NC(=O)[C@H](Cc4c[nH]c5ccccc45)NC(=O)[C@H](CCC(=O)O)NC(=O)[C@H](Cc4c[nH]cn4)NC(=O)[C@H]([C@@H](C)O)NC(=O)[C@H](CCCNC(=N)N)NC(=O)[C@H](CO)NC(=O)[C@H](CSSC[C@H](NC(=O)[C@H](CCCCN)NC(=O)[C@H](CCCNC(=N)N)NC(=O)[C@H](CC(C)C)NC1=O)C(=O)N[C@@H]([C@@H](C)CC)C(=O)N1CCC[C@H]1C(=O)N[C@@H](CC(=O)O)C(=O)N[C@@H](CC(N)=O)C(=O)N[C@@H](CC(=O)O)C(=O)N[C@@H](CCCCN)C(=O)N3)NC(=O)[C@H](C(C)C)NC(=O)[C@H](CC(C)C)NC(=O)[C@H](CC(N)=O)NC(=O)[C@@H]1CCCN1C(=O)[C@H](CCCNC(=N)N)NC2=O` [compound 707] (H-DCLG[Abu]LRKCIPDNDKCCRPNLVCSRTHEWCKYVF-NH2; disulfide 2-17, 9-23, 16-30), the IC50 at hNav1.7 (setting [1]) was 1200 nM; on hNav1.5 (setting [2]), 6000 nM; on hNav1.3 (setting [3]) it was above 5000 nM.

Turning to `CC[C@H](C)[C@@H]1NC(=O)[C@@H]2CSSC[C@@H]3NC(=O)[C@H](C(C)C)NC(=O)[C@H](CC(C)C)NC(=O)[C@H](CC(N)=O)NC(=O)[C@@H]4CCCN4C(=O)[C@H](CCCNC(=N)N)NC(=O)[C@H](CSSC[C@H](NC(=O)[C@@H](N)CC(=O)O)C(=O)N[C@@H](CC(C)C)C(=O)NCC(=O)N[C@@H](C4CCCC4)C(=O)N[C@@H](Cc4ccccc4)C(=O)N[C@@H](CCCNC(=N)N)C(=O)N[C@@H](CCCCN)C(=O)N2)NC(=O)[C@H](CSSC[C@@H](C(=O)N[C@@H](CCCCN)C(=O)N[C@@H](Cc2ccc(O)cc2)C(=O)N[C@H](C(=O)N[C@@H](Cc2ccccc2)C(N)=O)C(C)C)NC(=O)[C@H](Cc2c[nH]c4ccccc24)NC(=O)[C@H](CCCCN)NC(=O)[C@H](Cc2c[nH]cn2)NC(=O)[C@H]([C@@H](C)O)NC(=O)[C@H](CCCNC(=N)N)NC(=O)[C@H](CO)NC3=O)NC(=O)[C@H](CCCCN)NC(=O)[C@H](CC(=O)O)NC(=O)[C@H](CC(N)=O)NC(=O)[C@H](CC(=O)O)NC(=O)[C@@H]2CCCN2C1=O` [compound 615] (H-DCLG[Gly(cPent)]FRKCIPDNDKCCRPNLVCSRTHKWCKYVF-NH2; disulfide 2-17, 9-23, 16-30), the IC50 was found to be 35 nM at hNav1.7 (setting [1]), 5600 nM at hNav1.5 (setting [2]) and 120 nM at hNav1.3 (setting [3]).

The values above are taken from patent publication US9340590B2 (priority 2011, dated 2016).
